Marks after values point to notes of the source that are not given here.
Key:
[1] = test system: human promyelocytic leukemia cell line HL-60; test: MTT cell growth inhibition, HL-60; type: cell-based; conditions: Homo sapiens; HL-60, MTT assay, 72 h; read-out: IC50, growth of tumor cell line
LOVO xenografts = LOVO xenografts in nude mice; type: in vivo; conditions: LOVO xenograft nude mice
Summary of the method: (§1)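 Female BALB/nu/nu mice received 1×10^7 cells subcutaneously and were randomized at 70–100 mm^3, six per group. Compounds were given at 1 mg/kg i.p. every two days for 8 doses, with saline as control. Tumor volume was calculated as V=½(ab^2), and body weight was monitored.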

[2] = MTT cytotoxicity on normal cells, LO2; conditions: human, LO2 cells (human normal liver cells)
Protocol: (§2) Then, 100 μL of cells (cell concentration was 5×10^5/mL) were seeded into 96 wells plate. After 24 h incubation at 37° C. with 5% CO2, tested compounds were added (the control group without compound) for an additional 72 h incubation. After that, 30 μL of MTT [3-(4,5-Dimethylthiazol-2-yl)-2,5-diphenyltetrazolium bromide] solution (5 mg/mL) was added into each well and incubated for another 4 h at 37° C. and then the formazan crystals were solubilized with 100 μL DMSO. Finally, absorbance of each well was determined at 570 nm by a microplate reader (Thermo).
(§3) The standard curve was drew with compound concentrations as the abscissa and cell growth inhibition rates as the ordinate. The concentration required to inhibit cell growth by 50% (IC50) was calculated from survival curves.
(§4) Experimental method: In vitro cytotoxicities of vinca alkaloids, hydrazinolyzed vinca alkaloids and vinca alkaloid dipeptide derivatives on human normal liver cells LO2 and human umbilical vein endothelial cells HUVEC were detected according to the method of Example 2.

[3] = test system: human melanoma cell line A375; test: MTT cell growth inhibition, A375; type: cell-based; conditions: Homo sapiens, A-375; A375, MTT assay, 72 h; read-out: IC50, growth of tumor cell line
From the text: (§5) Experimental method: Cell lines (human non-small-cell lung cancer cell line A549, human colon cancer cell line LOVO, human nasopharyngeal carcinoma cell line CNE-2, human liver cancer cell line HepG2, human cervical carcinoma cell line Hela, human breast cancer cell lines MCF-7 and MDA-MB-231, human gastric carcinoma cell line NCI-N87, human prostatic cancer cell lines PC-3 and DU145, human leukemia cell line K562, human melanoma cell line A375, human neuroblastoma cell line SH-SY5H, human promyelocytic leukemia cell line HL-60, 5-FU-resistant human hepatocellular carcinoma cell line BEL-7402/5-Fu, doxorubicin-resistant hepatocellular carcinoma cell line HepG2/ADM, doxorubicin-resistant human breast cancer cell lines MCF-7/ADR) at logarithmic phase were resuspended in RPMI 1640 medium (containing 10% fetal bovine serum, 100 U/mL penicillin-streptomycin). Then, 100 μL of cells (cell concentration was 5×10^5/mL) were seeded into 96 wells plate. After 24 h incubation at 37° C. with 5% CO2, tested compounds were added (the control group without compound) for an additional 72 h incubation. After that, 30 μL of MTT [3-(4,5-Dimethylthiazol-2-yl)-2,5-diphenyltetrazolium bromide] solution (5 mg/mL) was added into each well and incubated for another 4 h at 37° C. and then the formazan crystals were solubilized with 100 μL DMSO. Finally, absorbance of each well was determined at 570 nm by a microplate reader (Thermo).
(§6) The concentration required to inhibit cell growth by 50% (IC50) was calculated from survival curves.

[4] = test system: human breast cancer cell line MDA-MB-231; test: MTT cell growth inhibition, MDA-MB-231; type: cell-based; conditions: Homo sapiens; MDA-MB-231, MTT assay, 72 h; read-out: IC50, growth of tumor cell line
From the text: as §5, §6

K562 xenografts = K562 xenografts in nude mice; type: in vivo; conditions: K562 xenograft nude mice
Summary of the method: as §1

[5] = test system: human nasopharyngeal carcinoma cell line CNE-2; test: MTT cell growth inhibition, CNE-2; type: cell-based; conditions: Homo sapiens; CNE-2, MTT assay, 72 h; read-out: IC50, growth of tumor cell line
From the text: as §5, §6

[6] = test system: human non-small-cell lung cancer cell line A549; test: MTT cell growth inhibition, A549; type: cell-based; conditions: Homo sapiens; A549, MTT assay, 72 h; read-out: IC50, growth of tumor cell line
From the text: as §5, §6

Acute toxicity test = type: in vivo; conditions: mouse, in vivo, ip; Kunming mice, injected intraperitoneally; read-out: LD50 (median lethal dose)
Protocol: Experimental method: Kunming mice were purchased from Guangdong Medical Experimental Animal Center, weighing 18-22 g, then randomly divided into several groups with 10 mice in each group. Different concentrations of VLB and vinca alkaloid dipeptide derivatives were injected intraperitoneally. Finally, the median lethal dose (LD50) was calculated according to the surviving animals.
LD50 was measured using the following formula:
LD50 (mg/kg)=The median lethal dose/body weight

[7] = test system: doxorubicin-resistant hepatocellular carcinoma cell line HepG2/ADM; test: MTT cell growth inhibition, HepG2/ADM; type: cell-based, human; conditions: Homo sapiens, MTT assay, 72 h, read-out: IC50, growth of tumor cell line
From the text: as §5, §6

[8] = test system: human leukemia cell line K562; test: MTT cell growth inhibition, K562; type: cell-based; conditions: Homo sapiens; K562, MTT assay, 72 h; read-out: IC50, growth of tumor cell line
MDA-MB-231 xenografts = MDA-MB-231 xenografts in nude mice; type: in vivo, BALB/nu/nu mice; conditions: MDA-MB-231 xenograft nude mice
Summary of the method: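 Female BALB/nu/nu mice bearing subcutaneous MDA-MB-231 tumours (1×10^7 cells; 70–100 mm^3 at randomisation), six per group. Compounds given at 1 mg/kg i.p. every two days for 8 doses versus saline. Tumour volume (V=½ab^2) and body weight tracked.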

[9] = MTT cytotoxicity on normal cells, HUVEC; conditions: human, HUVEC (human umbilical vein endothelial cells)
Protocol: as §2, §3, §4

HL-60 xenografts = HL-60 xenografts in nude mice; type: in vivo; conditions: HL-60 xenograft nude mice
Summary of the method: as §1

[10] = test system: human neuroblastoma cell line SH-SY5H; test: MTT cell growth inhibition, SH-SY5H; type: cell-based; conditions: Homo sapiens, Neuroblastoma cell, MTT assay, 72 h, read-out: IC50, growth of tumor cell line
From the text: as §5, §6

HepG2 xenografts = HepG2 xenografts in nude mice; type: in vivo; conditions: HepG2 xenograft nude mice
Summary of the method: as §1

[11] = test system: 5-FU-resistant human hepatocellular carcinoma cell line BEL-7402/5-Fu; test: MTT cell growth inhibition, BEL-7402/5-Fu; type: cell-based; conditions: Homo sapiens, Bel7402/5-FU, MTT assay, 72 h, read-out: IC50, growth of tumor cell line
From the text: as §5, §6

[12] = test system: human prostatic cancer cell line DU145; test: MTT cell growth inhibition, DU-145; type: cell-based; conditions: Homo sapiens; DU-145, MTT assay, 72 h; read-out: IC50, growth of tumor cell line
From the text: as §5, §6

[13] = test system: human gastric carcinoma cell line NCI-N87; test: MTT cell growth inhibition, NCI-N87; type: cell-based; conditions: Homo sapiens; NCI-N87, MTT assay, 72 h; read-out: IC50, growth of tumor cell line
From the text: as §5, §6

[14] = test system: human liver cancer cell line HepG2; test: MTT cell growth inhibition, HepG2; type: cell-based; conditions: Homo sapiens; HepG2, MTT assay, 72 h; read-out: IC50, growth of tumor cell line
From the text: as §5, §6

[15] = test system: human colon cancer cell line LOVO; test: MTT cell growth inhibition, LOVO; type: cell-based; conditions: Homo sapiens; LOVO (FAPα positive), MTT assay, 72 h; read-out: IC50, growth of tumor cell line
From the text: as §5, §6

[16] = test system: human breast cancer cell line MCF-7; test: MTT cell growth inhibition, MCF-7; type: cell-based; conditions: Homo sapiens, MCF7; MCF-7, MTT assay, 72 h; read-out: IC50, growth of tumor cell line
From the text: as §5, §6

[17] = test system: human cervical carcinoma cell line Hela; test: MTT cell growth inhibition, Hela; type: cell-based; conditions: Homo sapiens, MTT assay, 72 h, read-out: IC50, growth of tumor cell line
[18] = 1 mg/kg i.p. every two days, 8 administrations

In the case of `CC[C@]1(O)C[C@@H]2CN(CCc3c([nH]c4ccccc34)[C@@](C(=O)OC)(c3cc4c(cc3OC)N(C)[C@H]3[C@@](O)(C(=O)OC)[C@H](OC(C)=O)[C@]5(CC)C=CCN6CC[C@]43[C@@H]65)C2)C1` [Vinblastine, reference compound], the IC50 [1] is reported as 5.21 ± 0.84 nM, the “Anti-tumor rate (%)” value (LOVO xenografts; 1 mg/kg) is reported as 44.60* % and the “Body weight (g) Post-dose” value (LOVO xenografts; 1 mg/kg) is reported as 19.6 ± 1.5 g. The “Tumor weight” value (LOVO xenografts; 1 mg/kg) was 1.59 ± 0.51 g, the “Body weight (g) Pre-dose” value (LOVO xenografts; before dosing) was 23.1 ± 1.4 g and the IC50 at 72 h [2] was 0.34 ± 0.07 nM. For the same compound, the IC50 [3] was 3.24 ± 0.39 nM, the IC50 [4] was 0.81 ± 0.35 nM and the “Anti-tumor rate (%)” value (K562 xenografts; 1 mg/kg) was 49.81* %. For the same compound, the “Body weight (g) Post-dose” value (K562 xenografts; 1 mg/kg) was 17.4 ± 0.4 g, the “Tumor weight” value (K562 xenografts; 1 mg/kg) was 0.86 ± 0.10 g and the “Body weight (g) Pre-dose” value (K562 xenografts; before dosing) was 21.9 ± 0.7 g. For the same compound, the IC50 [5] was 1.03 ± 0.07 nM, the IC50 [6] was 2.31 ± 0.13 nM and the LD50 (Acute toxicity test) was 4 mg/kg. The IC50 [7] was 10.1 ± 1.12 nM, the IC50 [8] was 0.72 ± 0.2 nM and the “Anti-tumor rate (%)” value (MDA-MB-231 xenografts; [18]) was 53.26** %. The “Body weight (g) Post-dose” value (MDA-MB-231 xenografts; [18]) was 18.3 ± 2.4 g, the “Tumor weight” value (MDA-MB-231 xenografts; [18]) was 1.22 ± 0.35 g and the “Body weight (g) Pre-dose” value (MDA-MB-231 xenografts; before dosing) was 20.7 ± 1.4 g. The IC50 at 72 h [9] was 0.76 ± 0.13 nM, the “Anti-tumor rate (%)” value (HL-60 xenografts; 1 mg/kg) was 52.89** % and the “Body weight (g) Post-dose” value (HL-60 xenografts; 1 mg/kg) was 16.2 ± 0.7 g. The “Tumor weight” value (HL-60 xenografts; 1 mg/kg) was 0.98 ± 0.25 g, the “Body weight (g) Pre-dose” value (HL-60 xenografts; before dosing) was 19.4 ± 1.0 g and the IC50 [10] was 6.13 ± 0.51 nM. The “Anti-tumor rate (%)” value (HepG2 xenografts; 1 mg/kg) was 42.75* %, the “Body weight (g) Post-dose” value (HepG2 xenografts; 1 mg/kg) was 18.2 ± 1.8 g and the “Body weight (g) Pre-dose” value (HepG2 xenografts; before dosing) was 21.9 ± 0.7 g. For the same compound, the IC50 [11] was 25.8 ± 3.01 nM, the IC50 [12] was 0.78 ± 0.31 nM and the IC50 [13] was 2.23 ± 0.43 nM. For the same compound, the IC50 [14] was 3.07 ± 0.12 nM, the IC50 [15] was 1.2 ± 0.24 nM and the IC50 [16] was 3.67 ± 1.34 nM. It also gave an IC50 [17] of 4.34 ± 0.36 nM.

Reference: patent US10377774B2 (JINAN UNIVERSITY, priority 2013, dated 2019)
